System: 885512-296-R-J2-PDC complex spheroid viability
Test: Anticancer human tumor 885512-296-R-J2-PDC patient-derived breast carcinoma cell line growth inhibition [GQUAD]
Conditions: for IC50: curve of first compound; for viability, T/C: stronger effect = lower value
How it was run: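 Tumor cells were grown as complex spheroids with HUVEC endothelial cells and mesenchymal stem cells as stroma. G-quadruplex stabilizers were combined with targeted agents over half-log dilutions from near the clinical Cmax, or from 10 microM.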

[1] = second compound 0.0316 µM, first compound 0.0316 µM
[2] = second compound 0.0316 µM, first compound 0.1 µM
[3] = second compound 0.0316 µM, first compound 0.316 µM
[4] = second compound 0.0316 µM, first compound 1 µM
[5] = second compound 0.0316 µM, first compound 3.16 µM
[6] = second compound 0.0316 µM, first compound 10 µM
[7] = second compound 0.1 µM, first compound 0.0316 µM
[8] = second compound 0.1 µM, first compound 0.1 µM
[9] = second compound 0.1 µM, first compound 0.316 µM
[10] = second compound 0.1 µM, first compound 1 µM
[11] = second compound 0.1 µM, first compound 3.16 µM
[12] = second compound 0.1 µM, first compound 10 µM
[13] = second compound 0.316 µM, first compound 0.0316 µM
[14] = second compound 0.316 µM, first compound 0.1 µM
[15] = second compound 0.316 µM, first compound 0.316 µM
[16] = second compound 0.316 µM, first compound 1 µM
[17] = second compound 0.316 µM, first compound 3.16 µM
[18] = second compound 0.316 µM, first compound 10 µM
[19] = second compound 1 µM, first compound 0.0316 µM
[20] = second compound 1 µM, first compound 0.1 µM
[21] = second compound 1 µM, first compound 0.316 µM
[22] = second compound 1 µM, first compound 1 µM
[23] = second compound 1 µM, first compound 3.16 µM
[24] = second compound 1 µM, first compound 10 µM
[25] = second compound 3.16 µM, first compound 0.0316 µM
[26] = second compound 3.16 µM, first compound 0.1 µM
[27] = second compound 3.16 µM, first compound 0.316 µM
[28] = second compound 3.16 µM, first compound 1 µM
[29] = second compound 3.16 µM, first compound 3.16 µM
[30] = second compound 3.16 µM, first compound 10 µM
[31] = second compound 10 µM, first compound 0.0316 µM
[32] = second compound 10 µM, first compound 0.1 µM
[33] = second compound 10 µM, first compound 0.316 µM
[34] = second compound 10 µM, first compound 1 µM
[35] = second compound 10 µM, first compound 3.16 µM
[36] = second compound 10 µM, first compound 10 µM
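Note: spheroids exposed to the compounds for one week.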
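Throughout, for viability, T/C: percent of tumor spheroid viability relative to DMSO vehicle control wells.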

Question: Which results are given for CC(C)(O)C1CCC(Nc2ccc3ncc(-c4cccc(C(F)(F)F)c4)n3n2)CC1 (centres undefined) + CN(C)c1ccc(Nc2c3ccc(NC(=O)CCN4CCCC4)cc3nc3cc(NC(=O)CCN4CCCC4)ccc23)cc1?
Answer: IC50 (second compound 0.0316 µM): 1.72 µM; IC50 (second compound 0.1 µM): 1.51 µM; IC50 (second compound 0.316 µM): 1.56 µM; IC50 (second compound 1 µM): 1.55 µM; IC50 (second compound 3.16 µM): 1.03 µM; IC50 (second compound 10 µM): < 0.0316 µM; viability, T/C [1]: 111%; viability, T/C [2]: 99.6%; viability, T/C [3]: 105%; viability, T/C [4]: 78.7%; viability, T/C [5]: 11.9%; viability, T/C [6]: 23.8%; viability, T/C [7]: 99.6%; viability, T/C [8]: 95%; viability, T/C [9]: 97.9%; viability, T/C [10]: 68.4%; viability, T/C [11]: 15.2%; viability, T/C [12]: 18.6%; viability, T/C [13]: 106%; viability, T/C [14]: 98.6%; viability, T/C [15]: 86.3%; viability, T/C [16]: 72.2%; viability, T/C [17]: 9.35%; viability, T/C [18]: 19.9%; viability, T/C [19]: 92.7%; viability, T/C [20]: 92.4%; viability, T/C [21]: 86.3%; viability, T/C [22]: 72.5%; viability, T/C [23]: 9.81%; viability, T/C [24]: 16.3%; viability, T/C [25]: 102%; viability, T/C [26]: 87.9%; viability, T/C [27]: 80.5%; viability, T/C [28]: 54.9%; viability, T/C [29]: 4.35%; viability, T/C [30]: 4.39%; viability, T/C [31]: 16.9%; viability, T/C [32]: 12.6%; viability, T/C [33]: 16%; viability, T/C [34]: 8.44%; viability, T/C [35]: 0.72%; viability, T/C [36]: 0.22%

Question: How did the IC50 (second compound 0.0316 µM) turn out when CC1COCCN1c1cc(C2(S(C)(=N)=O)CC2)nc(-c2ccnc3[nH]ccc23)n1 (centres undefined) + CN(C)c1ccc(Nc2c3ccc(NC(=O)CCN4CCCC4)cc3nc3cc(NC(=O)CCN4CCCC4)ccc23)cc1 was run?
Answer: 0.8 µM

Question: What about the IC50 (second compound 0.1 µM) of the same compound?
Answer: 0.795 µM

Question: And the IC50 (second compound 0.316 µM)?
Answer: 0.765 µM

Question: What about the IC50 (second compound 1 µM) of the same compound?
Answer: 0.729 µM

Question: What about the IC50 (second compound 3.16 µM) of the same compound?
Answer: 0.744 µM

Question: And the IC50 (second compound 10 µM)?
Answer: < 0.0316 µM

Question: And the viability, T/C [1]?
Answer: 102%

Question: What about the viability, T/C [2] of the same compound?
Answer: 90.4%

Question: What about the viability, T/C [3] of the same compound?
Answer: 93%

Question: What about the viability, T/C [4] of the same compound?
Answer: 39.7%

Question: What about the viability, T/C [5] of the same compound?
Answer: 5.75%

Question: And the viability, T/C [6]?
Answer: 3.04%

Question: And the viability, T/C [7]?
Answer: 104%

Question: And the viability, T/C [8]?
Answer: 92.5%

Question: What about the viability, T/C [9] of the same compound?
Answer: 90.7%

Question: And the viability, T/C [10]?
Answer: 39.9%

Question: What about the viability, T/C [11] of the same compound?
Answer: 6.39%

Question: And the viability, T/C [12]?
Answer: 2.92%

Question: What about the viability, T/C [13] of the same compound?
Answer: 110%

Question: And the viability, T/C [14]?
Answer: 102%

Question: What about the viability, T/C [15] of the same compound?
Answer: 87.1%

Question: What about the viability, T/C [16] of the same compound?
Answer: 39.5%

Question: And the viability, T/C [17]?
Answer: 6.6%

Question: What about the viability, T/C [18] of the same compound?
Answer: 4.64%

Question: What about the viability, T/C [19] of the same compound?
Answer: 97.3%

Question: And the viability, T/C [20]?
Answer: 90.8%

Question: What about the viability, T/C [21] of the same compound?
Answer: 85.1%

Question: And the viability, T/C [22]?
Answer: 36.9%

Question: What about the viability, T/C [23] of the same compound?
Answer: 6.12%

Question: What about the viability, T/C [24] of the same compound?
Answer: 3.44%

Question: And the viability, T/C [25]?
Answer: 96.7%

Question: And the viability, T/C [26]?
Answer: 98.4%

Question: And the viability, T/C [27]?
Answer: 100%

Question: And the viability, T/C [28]?
Answer: 33.3%

Question: What about the viability, T/C [29] of the same compound?
Answer: 6.38%

Question: And the viability, T/C [30]?
Answer: 3.89%

Question: And the viability, T/C [31]?
Answer: 15.1%

Question: What about the viability, T/C [32] of the same compound?
Answer: 20.8%

Question: What about the viability, T/C [33] of the same compound?
Answer: 21.7%

Question: What about the viability, T/C [34] of the same compound?
Answer: 11.7%

Question: What about the viability, T/C [35] of the same compound?
Answer: 7.12%

Question: What about the viability, T/C [36] of the same compound?
Answer: 4.27%

Reference: PubChem BioAssay AID2060490 (Molecular Pharmacology Branch, DTP, NCI, 2025)
